From US8003660B2, “Modulators of muscarinic receptors” (Vertex Pharmaceuticals Incorporated, priority 2006, dated 2011)

Tests used:
Assay type in all cases: cell-based
M1 muscarinic receptor = target: T1, M1 muscarinic receptor (Homo sapiens, UniProt P11229); experiment: Functional mobilization of intracellular calcium (FLIPR) in CHO cells expressing M1; details: for EC50: CHO cells expressing M1, FLIPR calcium; for Emax: CHO, 100% = maximum response obtained with the Carbachol control, read-out: M1 Efficacy
T1 construct: expressed in transfected cells; host or cells: CHO (M1-CHO)
T1 sequence (P11229 1-460): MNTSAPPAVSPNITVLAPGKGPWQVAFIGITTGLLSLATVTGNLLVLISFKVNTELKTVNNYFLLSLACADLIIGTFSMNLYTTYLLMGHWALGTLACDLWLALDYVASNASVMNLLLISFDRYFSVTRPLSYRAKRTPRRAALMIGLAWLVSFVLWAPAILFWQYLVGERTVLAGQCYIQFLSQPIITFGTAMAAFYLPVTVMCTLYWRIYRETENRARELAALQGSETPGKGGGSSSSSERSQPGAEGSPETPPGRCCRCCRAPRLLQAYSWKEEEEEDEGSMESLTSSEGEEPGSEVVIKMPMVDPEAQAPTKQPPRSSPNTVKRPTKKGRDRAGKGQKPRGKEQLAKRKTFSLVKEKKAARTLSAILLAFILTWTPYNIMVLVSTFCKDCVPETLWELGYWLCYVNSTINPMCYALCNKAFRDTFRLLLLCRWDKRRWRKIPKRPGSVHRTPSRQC
Procedure, shortened: (§1)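 Calcium flux is read on FLIPR over 60 sec at 488/540 nm in muscarinic-receptor CHO lines. Antagonist mode adds carbachol at EC80 after 15 min compound preincubation or with simultaneous co-application. Agonist mode adds compound alone. Cells carry Fluo-3 or Calcium 3 dye in probenecid-containing pH 7.4 buffer, 0.5% DMSO final.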

M4 muscarinic receptor = target: T2, M4 muscarinic receptor (Homo sapiens, UniProt P08173); experiment: Functional mobilization of intracellular calcium (FLIPR) in CHO cells expressing M4; details: for EC50: CHO cells expressing M4, FLIPR calcium; for Emax: CHO, 100% = maximum response obtained with the Carbachol control, read-out: M4 Efficacy
T2 construct: expressed in transfected cells; host or cells: CHO (M4-CHO)
T2 sequence (P08173 1-479): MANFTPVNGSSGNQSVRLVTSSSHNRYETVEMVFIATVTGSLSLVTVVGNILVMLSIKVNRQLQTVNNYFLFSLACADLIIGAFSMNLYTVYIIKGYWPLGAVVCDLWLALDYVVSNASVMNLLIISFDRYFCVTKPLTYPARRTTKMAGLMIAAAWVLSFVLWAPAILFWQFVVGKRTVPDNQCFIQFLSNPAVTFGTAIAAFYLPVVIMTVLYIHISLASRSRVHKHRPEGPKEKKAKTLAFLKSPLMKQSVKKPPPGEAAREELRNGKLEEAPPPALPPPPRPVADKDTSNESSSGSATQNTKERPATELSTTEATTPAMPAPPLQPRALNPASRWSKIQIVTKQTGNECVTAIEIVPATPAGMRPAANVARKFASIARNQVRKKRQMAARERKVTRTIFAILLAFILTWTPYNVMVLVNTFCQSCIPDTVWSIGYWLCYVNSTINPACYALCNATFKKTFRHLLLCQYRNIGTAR
Procedure, shortened: as §1

M3 muscarinic receptor = target: T3, M3 muscarinic receptor (Homo sapiens, UniProt P20309); experiment: Functional mobilization of intracellular calcium (FLIPR) in CHO cells expressing M3; details: for EC50: CHO cells expressing M3, FLIPR calcium; for Emax: CHO, 100% = maximum response obtained with the Carbachol control, read-out: M3 Efficacy
T3 construct: expressed in transfected cells; host or cells: CHO (M3-CHO)
T3 sequence (P20309 whole entry): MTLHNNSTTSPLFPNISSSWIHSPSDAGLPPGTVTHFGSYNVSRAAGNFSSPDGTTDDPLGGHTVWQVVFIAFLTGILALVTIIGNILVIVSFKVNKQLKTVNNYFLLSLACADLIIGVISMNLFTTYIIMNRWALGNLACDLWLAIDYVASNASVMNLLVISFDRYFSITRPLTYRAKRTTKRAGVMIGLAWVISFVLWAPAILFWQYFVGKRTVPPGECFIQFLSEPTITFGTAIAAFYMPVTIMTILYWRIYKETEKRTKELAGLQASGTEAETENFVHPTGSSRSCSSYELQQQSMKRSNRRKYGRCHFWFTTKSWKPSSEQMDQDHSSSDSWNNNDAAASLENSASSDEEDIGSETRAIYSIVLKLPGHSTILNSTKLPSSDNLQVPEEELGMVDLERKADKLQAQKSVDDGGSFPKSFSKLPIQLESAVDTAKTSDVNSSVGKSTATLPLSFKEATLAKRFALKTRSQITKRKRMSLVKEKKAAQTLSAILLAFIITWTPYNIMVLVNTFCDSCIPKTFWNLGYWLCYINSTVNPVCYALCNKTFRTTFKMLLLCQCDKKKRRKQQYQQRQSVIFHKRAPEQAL
Procedure, shortened: as §1

M2 muscarinic receptor = target: T4, M2 muscarinic receptor (Homo sapiens, UniProt P08172); experiment: Functional mobilization of intracellular calcium (FLIPR) in CHO cells expressing M2; details: for EC50: CHO cells expressing M2, FLIPR calcium; for Emax: CHO, 100% = maximum response obtained with the Carbachol control, read-out: M2 Efficacy
T4 construct: expressed in transfected cells; host or cells: CHO (M2-CHO)
T4 sequence (P08172 1-466): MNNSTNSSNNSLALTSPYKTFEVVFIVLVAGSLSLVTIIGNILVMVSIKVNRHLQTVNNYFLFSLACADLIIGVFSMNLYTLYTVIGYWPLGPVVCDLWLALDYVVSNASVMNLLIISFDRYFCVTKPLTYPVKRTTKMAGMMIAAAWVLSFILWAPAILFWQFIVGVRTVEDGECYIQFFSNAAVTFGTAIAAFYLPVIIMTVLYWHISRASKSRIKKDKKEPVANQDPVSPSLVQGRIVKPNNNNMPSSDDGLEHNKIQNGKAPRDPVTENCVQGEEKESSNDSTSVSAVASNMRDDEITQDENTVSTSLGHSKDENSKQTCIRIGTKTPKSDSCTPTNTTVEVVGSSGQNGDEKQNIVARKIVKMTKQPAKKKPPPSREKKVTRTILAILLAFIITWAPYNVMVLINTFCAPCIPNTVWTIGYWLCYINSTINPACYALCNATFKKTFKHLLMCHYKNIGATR
Procedure, shortened: as §1

Structure (SMILES) | EC50 (M1 muscarinic receptor) [µM] | Emax (M1 muscarinic receptor) [%] | EC50 (M4 muscarinic receptor) [µM] | Emax (M4 muscarinic receptor) [%] | EC50 (M3 muscarinic receptor) [µM] | Emax (M3 muscarinic receptor) [%] | EC50 (M2 muscarinic receptor) [µM] | Emax (M2 muscarinic receptor) [%]
CC(=O)N1CCCC[C@@H]1C(=O)N[C@H]1CCC2(CCN(CCC(C)(C)C)CC2)c2cc(F)ccc21 [compound 82] | < 2 | 25 to 100 | < 2 | 25 to 100 | > 5 | < 25 | 2 to 5 | < 25
CC(=O)N1CCCC[C@H]1C(=O)N[C@H]1CCC2(CCN(CCC(C)(C)C)CC2)c2cc(F)ccc21 [compound 83] | < 2 | 25 to 100 | < 2 | 25 to 100 | > 5 | < 25 | > 5 | < 25
CC(=O)N1CCC[C@H]1C(=O)N[C@@H]1CCC2(CCN(CCC(C)(C)C)CC2)c2ccccc21 [compound 84] | 2 to 5 | 25 to 100 | < 2 | 25 to 100 | > 5 | < 25 | < 2 | 25 to 100
C[C@@H](O)CC(=O)N[C@H]1CCC2(CCN(CCC(C)(C)C)CC2)c2ccccc21 [compound 85] | < 2 | 25 to 100 | < 2 | 25 to 100 | > 5 | < 25 | < 2 | 25 to 100
CC(=O)N(C(C)C)[C@H]1CCC2(CCN(CCC(C)(C)C)CC2)c2cc(F)ccc21 [compound 86] | < 2 | 25 to 100 | < 2 | 25 to 100 | > 5 | < 25 | > 5 | < 25
CC(=O)NC(C(=O)N[C@@H]1CCC2(CCN(CCC(C)(C)C)CC2)c2ccccc21)C(C)C (stereo partly shown) [compound 87] | > 5 | < 25 | < 2 | 25 to 100 | > 5 | < 25 | > 5 | < 25
CC(C)(C)CCN1CCC2(CC[C@H](NC(=O)CCOC(C)(C)C)c3ccccc32)CC1 [compound 88] | < 2 | 25 to 100 | < 2 | 25 to 100 | > 5 | < 25 | < 2 | 25 to 100
CC(C)CCN1CCC2(CCCc3ccccc32)CC1 [compound 89] | > 5 | 25 to 100 | < 2 | 25 to 100 | > 5 | < 25 | > 5 | < 25
CC(C)CCN1CCC2(CC[C@H](N3CCCC3=O)c3ccccc32)CC1 [compound 90] | 2 to 5 | 25 to 100 | 2 to 5 | 25 to 100 | > 5 | < 25 | > 5 | < 25
CC(C)(C)CCN1CCC2(CC[C@H](N3CCCC3=O)c3ccc(F)cc32)CC1 [compound 91] | < 2 | 25 to 100 | < 2 | 25 to 100 | > 5 | < 25 | < 2 | < 25
CC(=O)CCC(=O)N[C@H]1CCC2(CCN(CCC(C)(C)C)CC2)c2cc(F)ccc21 [compound 92] | < 2 | 25 to 100 | < 2 | 25 to 100 | > 5 | < 25 | < 2 | 25 to 100
CC(C)(C)CCN1CCC2(CC[C@@H](NC(=O)CC3CCOCC3)c3ccc(F)cc32)CC1 [compound 93] | 2 to 5 | 25 to 100 | < 2 | 25 to 100 | > 5 | < 25 | > 5 | < 25
CCCN1CCC2(CC[C@H](NC(C)=O)c3ccccc32)CC1 [compound 95] | > 5 | 25 to 100 | > 5 | 25 to 100 | > 5 | < 25 | > 5 | < 25
CC(=O)NCCC(=O)N[C@H]1CCC2(CCN(CCC(C)(C)C)CC2)c2cc(F)ccc21 [compound 96] | < 2 | 25 to 100 | < 2 | 25 to 100 | > 5 | < 25 | < 2 | 25 to 100
CC(C)(C)CCN1CCC2(CCC(C#N)c3ccccc32)CC1 (stereo not shown) [compound 97] | < 2 | 25 to 100 | < 2 | 25 to 100 | > 5 | < 25 | < 2 | 25 to 100
Cn1cnc(C(=O)N[C@H]2CCC3(CCN(CCC(C)(C)C)CC3)c3ccccc32)c1 [compound 98] | < 2 | 25 to 100 | < 2 | 25 to 100 | > 5 | < 25 | > 5 | < 25
CCOCC(=O)N[C@@H]1CCC2(CCN(CCC(C)(C)C)CC2)c2ccccc21 [compound 99] | > 5 | < 25 | < 2 | 25 to 100 | > 5 | < 25 | > 5 | < 25
CCN(C(=O)CCNC(C)=O)[C@@H]1CCC2(CCN(CCC(C)(C)C)CC2)c2ccccc21 [compound 100] | > 5 | < 25 | < 2 | 25 to 100 | > 5 | < 25 | > 5 | < 25
CCN(C(=O)c1cncn1C)[C@@H]1CCC2(CCN(CCC(C)(C)C)CC2)c2ccccc21 [compound 101] | < 2 | 25 to 100 | 2 to 5 | 25 to 100 | > 5 | < 25 | > 5 | < 25
CC(C)(C)CCN1CCC2(CC[C@H](N3C(=O)CCC3=O)c3ccccc32)CC1 [compound 102] | 2 to 5 | 25 to 100 | < 2 | 25 to 100 | > 5 | < 25 | > 5 | < 25
CC(C)(C)CCN1CCC2(CC[C@H](NC(=O)C3CCC(=O)N3)c3ccc(F)cc32)CC1 (stereo partly shown) [compound 103] | < 2 | 25 to 100 | < 2 | 25 to 100 | > 5 | < 25 | < 2 | < 25
CC(=O)N[C@H]1CCC2(CCN(CC(C)C)CC2)c2ccccc21 [compound 104] | 2 to 5 | 25 to 100 | 2 to 5 | 25 to 100 | > 5 | < 25 | > 5 | 25 to 100
COCCC(=O)N[C@@H]1CCC2(CCN(CCC(C)(C)C)CC2)c2ccccc21 [compound 105] | 2 to 5 | < 25 | < 2 | 25 to 100 | > 5 | < 25 | > 5 | < 25
